Assay results taken from patent US8173788B2, “Peptide having ability to activate cancer-related gene” (priority 2005, dated 2012).

Tested on: human normal peripheral blood monocyte
Test: Influence of the artificially synthesized peptide on normal cell genes: coculture 7 hr, DNA chip system (Clontech), about 55000 human genes (Table 4)
Format: cell-based
Conditions: Suppressed Gene, Immune System Gene
Experimental: (a) The peptide obtained in Example 3 was added to a human normal peripheral blood monocyte culture system (10 to 100 μg peptide/1×10^6 to 1×10^7 monocytes), and they were cocultured for 7 hr. Then, mRNA was extracted from the monocytes and was applied to analysis for up-regulation and down-regulation in respect to about 55000 human genes by using DNA chip system (Clontech).

[1] = Gene No. 12812, ovarian carcinoma immunoreactive antigen (OCIA)
[2] = Gene No. 14949, programmed cell death 10 (PDCD10), transcript variant 1
[3] = Gene No. 15907, intercellular adhesion molecule 2 (ICAM2)
[4] = Gene No. 15994, beta-2-microglobulin (B2M)
[5] = Gene No. 16478, tumor necrosis factor (ligand) superfamily, member 12 (TNFSF12), transcript variant 1, mRNA
[6] = Gene No. 16756, major histocompatibility complex, class I, E (HLA-E)
[7] = Gene No. 17177, tumor necrosis factor superfamily, member 5-induced protein 1 (TNFSF5IP1)
[8] = Gene No. 18139, major histocompatibility complex, class II, DQ alpha 1 (HLA-DQA1)
[9] = Gene No. 18884, (clone 38-1) MHC class I mRNA fragment.
[10] = Gene No. 20551, IL2-inducible T-cell kinase (ITK)
[11] = Gene No. 20881, natural killer cell transcript 4 (NK4)
[12] = Gene No. 21487, programmed cell death 2 (PDCD2), transcript variant 1
[13] = Gene No. 22326, immune associated nucleotide 2 (hIAN2)
[14] = Gene No. 22789, CASP8 and FADD-like apoptosis regulator (CFLAR)
[15] = Gene No. 22868, lymphocyte cytosolic protein 2 (SH2 domain containing leukocyte protein of 76 kDa) (LCP2)
[16] = Gene No. 22890, NK inhibitory receptor precursor (NKIR)
[17] = Gene No. 23827, major histocompatibility complex, class II, DM alpha (HLA-DMA)
[18] = Gene No. 24440, THYMUS cDNA clone CS0CAP007YL06 5-PRIME
[19] = Gene No. 24969, CD69 antigen (p60, early T-cell activation antigen) (CD69)
[20] = Gene No. 34736, adhesion molecule AMICA (AMICA)
[21] = Gene No. 37068, immediate early response 2 (IER2)
[22] = Gene No. 37445, mal, T-cell differentiation protein (MAL), transcript variant d
[23] = Gene No. 37834, proteasome (prosome, macropain) 26S subunit, non-ATPase, 1 (PSMD1)
[24] = Gene No. 38103, tumor necrosis factor receptor superfamily, member 7 (TNFRSF7)
[25] = Gene No. 38879, interferon stimulated gene 20 kDa (ISG20)
[26] = Gene No. 39926, thymosin-like 6 (TMSL6)
[27] = Gene No. 39991, lymphotoxin beta (TNF superfamily, member 3) (LTB), transcript variant 2
[28] = Gene No. 40727, linker for activation of T cells (LAT)
[29] = Gene No. 41726, apoptosis-associated speck-like protein containing a CARD (ASC), transcript variant 1
[30] = Gene No. 41803, programmed cell death 2 (PDCD2), transcript variant 2
[31] = Gene No. 41817, major histocompatibility complex, class I, F (HLA-F)
[32] = Gene No. 42474, programmed cell death 6 (PDCD6)
[33] = Gene No. 42573, T-cell activation protein (PGR1)
[34] = Gene No. 42614, killer cell lectin-like receptor subfamily K, member 1 (KLRK1)
[35] = Gene No. 42661, proteasome (prosome, macropain) subunit, beta type, 9 (large multifunctional protease 2) (PSMB9), transcript variant 1
[36] = Gene No. 42680, proteasome (prosome, macropain) 26S subunit, ATPase, 4 (PSMC4), transcript variant 1
[37] = Gene No. 42813, granzyme A (granzyme 1, cytotoxic T-lymphocyte-associated serine esterase 3) (GZMA)
[38] = Gene No. 43032, interferon, gamma-inducible protein 16 (IFI16)
[39] = Gene No. 45767, HLA-B associated transcript 1 (BAT1), transcript variant 1
[40] = Gene No. 46186, cell death-regulatory protein GRIM19 (GRIM19)
[41] = Gene No. 47689, killer cell lectin-like receptor subfamily B, member 1 (KLRB1)
[42] = Gene No. 47973, CD8 antigen, beta polypeptide 1 (p37) (CD8B1), transcript variant 5
[43] = Gene No. 49170, interferon gamma receptor 2 (interferon gamma transducer 1) (IFNGR2)
[44] = Gene No. 49586, interleukin-1 receptor-associated kinase 4 (IRAK4)
[45] = Gene No. 49622, intercellular adhesion molecule 3 (ICAM3)
[46] = Gene No. 51004, tumor necrosis factor (ligand) superfamily, member 10 (TNFSF10)
[47] = Gene No. 52071, interferon (alpha, beta and omega) receptor 1 (IFNAR1)
[48] = Gene No. 52342, apoptosis-related protein PNAS-1 (FLJ39616)
[49] = Gene No. 52539, major histocompatibility complex, class II, DR alpha (HLA-DRA)
[50] = Gene No. 53172, transforming growth factor, beta 1 (Camurati-Engelmann disease) (TGFB1)

the Peptide (QPQFGRRMESK; Human squamous cell carcinoma)
Suppression Ratio (Gene No. 11651, implantation-associated protein (DKFZp564K142)): 89.16 | Expression Amount after Treatment with the Peptide [1]: 24.53 | Suppression Ratio [1]: 47.97 | Expression Amount after Treatment with the Peptide [2]: 25.27 | Suppression Ratio [2]: 40.37 | Expression Amount after Treatment with the Peptide [3]: 6.364 | Suppression Ratio [3]: 143.4 | Expression Amount after Treatment with the Peptide [4]: 239.5 | Suppression Ratio [4]: 47.59 | Expression Amount after Treatment with the Peptide [5]: 6.018 | Suppression Ratio [5]: 110.2 | Expression Amount after Treatment with the Peptide [6]: 2.806 | Suppression Ratio [6]: 140.8 | Expression Amount after Treatment with the Peptide [7]: 26.16 | Suppression Ratio [7]: 39.51 | Expression Amount after Treatment with the Peptide [8]: 33.12 | Suppression Ratio [8]: 80.32 | Expression Amount after Treatment with the Peptide [9]: 3.387 | Suppression Ratio [9]: 100.2 | Expression Amount after Treatment with the Peptide [10]: 22.93 | Suppression Ratio [10]: 122.6 | Expression Amount after Treatment with the Peptide [11]: 38.17 | Suppression Ratio [11]: 172.9 | Expression Amount after Treatment with the Peptide [12]: 9.909 | Suppression Ratio [12]: 39.12 | Expression Amount after Treatment with the Peptide [13]: 9.743 | Suppression Ratio [13]: 113.2 | Expression Amount after Treatment with the Peptide [14]: 9.725 | Suppression Ratio [14]: 75.25 | Expression Amount after Treatment with the Peptide [15]: 6.525 | Suppression Ratio [15]: 82.73 | Expression Amount after Treatment with the Peptide [16]: 9.902 | Suppression Ratio [16]: 112.4 | Expression Amount after Treatment with the Peptide [17]: 29.78 | Suppression Ratio [17]: 80.72 | Expression Amount after Treatment with the Peptide [18]: 0.2348 | Suppression Ratio [18]: 59.63 | Expression Amount after Treatment with the Peptide [19]: 25.71 | Suppression Ratio [19]: 95.14 | Expression Amount after Treatment with the Peptide [20]: 29.08 | Suppression Ratio [20]: 136.7 | Expression Amount after Treatment with the Peptide [21]: 57.38 | Suppression Ratio [21]: 121.3 | Expression Amount after Treatment with the Peptide [22]: 14.875 | Suppression Ratio [22]: 112.4 | Expression Amount after Treatment with the Peptide [23]: 14.11 | Suppression Ratio [23]: 38.69 | Expression Amount after Treatment with the Peptide [24]: 5.778 | Suppression Ratio [24]: 121.8 | Expression Amount after Treatment with the Peptide [25]: 31.94 | Suppression Ratio [25]: 91.84 | Expression Amount after Treatment with the Peptide [26]: 317.7 | Suppression Ratio [26]: 54.8 | Expression Amount after Treatment with the Peptide [27]: 17.77 | Suppression Ratio [27]: 135.9 | Expression Amount after Treatment with the Peptide [28]: 28.17 | Suppression Ratio [28]: 42.75 | Expression Amount after Treatment with the Peptide [29]: 33.51 | Suppression Ratio [29]: 134.7 | Expression Amount after Treatment with the Peptide [30]: 0.82 | Suppression Ratio [30]: 108.8 | Expression Amount after Treatment with the Peptide [31]: 98.43 | Suppression Ratio [31]: 107.9 | Expression Amount after Treatment with the Peptide [32]: 17.04 | Suppression Ratio [32]: 68.35 | Expression Amount after Treatment with the Peptide [33]: 15.75 | Suppression Ratio [33]: 60.53 | Expression Amount after Treatment with the Peptide [34]: 4.848 | Suppression Ratio [34]: 129.2 | Expression Amount after Treatment with the Peptide [35]: 39.14 | Suppression Ratio [35]: 38.48 | Expression Amount after Treatment with the Peptide [36]: 42.03 | Suppression Ratio [36]: 38.46 | Expression Amount after Treatment with the Peptide [37]: 38.51 | Suppression Ratio [37]: 115.5 | Expression Amount after Treatment with the Peptide [38]: 4.446 | Suppression Ratio [38]: 116.8 | Expression Amount after Treatment with the Peptide [39]: 18.125 | Suppression Ratio [39]: 130.2 | Expression Amount after Treatment with the Peptide [40]: 25.55 | Suppression Ratio [40]: 55.07 | Expression Amount after Treatment with the Peptide [41]: 72.08 | Suppression Ratio [41]: 52.77 | Expression Amount after Treatment with the Peptide [42]: 9.639 | Suppression Ratio [42]: 153.6 | Expression Amount after Treatment with the Peptide [43]: 10.09 | Suppression Ratio [43]: 70.7 | Expression Amount after Treatment with the Peptide [44]: 2.716 | Suppression Ratio [44]: 91.49 | Expression Amount after Treatment with the Peptide [45]: 39.68 | Suppression Ratio [45]: 86.23 | Expression Amount after Treatment with the Peptide [46]: 8.725 | Suppression Ratio [46]: 39.65 | Expression Amount after Treatment with the Peptide [47]: 9.429 | Suppression Ratio [47]: 44.09 | Expression Amount after Treatment with the Peptide [48]: 18.72 | Suppression Ratio [48]: 64.11 | Expression Amount after Treatment with the Peptide [49]: 158.7 | Suppression Ratio [49]: 109.3 | Expression Amount after Treatment with the Peptide [50]: 6.56 | Suppression Ratio [50]: 88.02
